Numbered stars: 1 amine (or outer) side, 2 acyl side, 3 side chain; on linkers, the order of the positions; unused ones are H or OH. Side chains are listed from the residue outwards. Peptide text beside a SMILES is read from it. * marks the point of attachment. γGlu = O=C(O)[C@H](CCC(=O)[*:2])N[*:1]; Palmitoyl = CCCCCCCCCCCCCCCC(=O)*; Ahx = NCCCCCC(=O)O
Experiments:
Assay in all cases: cAMP activity assay in assay medium (assay 1)
Format in all cases: cell-based
Human GlucR = target: T1, Human GlucR (Homo sapiens, UniProt P47871); conditions: assay medium; Table 4; read-out: hGlucR EC50
T1 construct: expressed in transfected cells
T1 sequence (P47871 26-477): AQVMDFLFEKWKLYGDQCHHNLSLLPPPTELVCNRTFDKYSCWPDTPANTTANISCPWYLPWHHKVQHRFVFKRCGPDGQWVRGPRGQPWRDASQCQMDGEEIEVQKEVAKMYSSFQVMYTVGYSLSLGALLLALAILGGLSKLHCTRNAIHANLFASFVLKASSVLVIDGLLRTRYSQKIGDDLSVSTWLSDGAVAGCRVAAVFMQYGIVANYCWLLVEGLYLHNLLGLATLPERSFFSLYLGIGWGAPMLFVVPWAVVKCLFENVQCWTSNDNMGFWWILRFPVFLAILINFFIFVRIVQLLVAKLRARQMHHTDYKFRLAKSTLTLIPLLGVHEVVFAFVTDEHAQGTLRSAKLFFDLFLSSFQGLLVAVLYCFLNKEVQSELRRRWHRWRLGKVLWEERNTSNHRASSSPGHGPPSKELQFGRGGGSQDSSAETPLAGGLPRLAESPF
Excerpt: (§1) Biological Activity of Peptides in Cell-Based cAMP Activity Assay (Assay 1):
(§2) All sample dilutions were made in duplicate.

Human GIPr = target: T2, Human GIPr (Homo sapiens, UniProt P48546); conditions: assay medium; Table 4; read-out: hGIPR EC50
T2 construct: expressed in transfected cells
T2 sequence (P48546 22-466): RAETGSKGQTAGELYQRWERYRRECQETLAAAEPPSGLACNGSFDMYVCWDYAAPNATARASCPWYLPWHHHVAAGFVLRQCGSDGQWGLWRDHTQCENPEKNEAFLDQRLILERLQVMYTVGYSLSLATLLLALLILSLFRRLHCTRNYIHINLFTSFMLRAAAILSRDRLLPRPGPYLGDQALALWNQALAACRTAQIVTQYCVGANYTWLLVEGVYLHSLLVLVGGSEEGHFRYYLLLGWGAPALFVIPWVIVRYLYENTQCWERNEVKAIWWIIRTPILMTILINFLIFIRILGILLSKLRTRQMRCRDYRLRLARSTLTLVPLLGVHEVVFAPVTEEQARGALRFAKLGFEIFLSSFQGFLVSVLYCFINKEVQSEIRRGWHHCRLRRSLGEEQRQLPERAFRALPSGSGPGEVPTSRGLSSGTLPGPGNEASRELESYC
Excerpt: as §1, §2

Human GLP1R = Human GLP1R (Homo sapiens, UniProt P43220); design: expressed in transfected cells; conditions: assay medium; Table 4; read-out: hGLP1R EC50
Sequence of Human GLP1R (P43220 24-463): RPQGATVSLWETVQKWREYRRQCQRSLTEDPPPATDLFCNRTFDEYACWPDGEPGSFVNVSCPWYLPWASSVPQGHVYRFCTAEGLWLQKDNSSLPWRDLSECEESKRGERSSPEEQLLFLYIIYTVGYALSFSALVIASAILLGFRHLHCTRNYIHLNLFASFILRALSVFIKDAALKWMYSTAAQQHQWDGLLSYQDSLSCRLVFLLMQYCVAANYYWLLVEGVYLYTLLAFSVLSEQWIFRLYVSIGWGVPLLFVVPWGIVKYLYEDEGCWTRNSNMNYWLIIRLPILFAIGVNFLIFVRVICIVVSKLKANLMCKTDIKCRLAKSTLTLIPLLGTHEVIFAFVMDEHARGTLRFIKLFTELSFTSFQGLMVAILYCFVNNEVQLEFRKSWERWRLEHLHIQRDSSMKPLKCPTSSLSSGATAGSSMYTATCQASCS
Excerpt: as §1, §2

Row | SMILES | EC50 (Human GlucR) [nM] | EC50 (Human GIPr) [nM] | EC50 (Human GLP1R) [nM]
1 | CCCCCCCCCCCCCCCC(=O)N[C@@H](CCC(=O)NCCCC[C@H](NC(=O)[C@H](CO)NC(=O)[C@H](CC(=O)O)NC(=O)[C@H](CC(C)C)NC(=O)[C@H](Cc1ccc(O)cc1)NC(=O)[C@H](CCC(=O)O)NC(=O)[C@H](CO)NC(=O)[C@H](Cc1ccc(O)cc1)NC(=O)[C@H](CC(=O)O)NC(=O)[C@H](CO)NC(=O)[C@@H](NC(=O)[C@H](Cc1ccccc1)NC(=O)[C@@H](NC(=O)CNC(=O)[C@H](CCC(N)=O)NC(=O)CNC(=O)[C@@H](N)Cc1c[nH]cn1)[C@@H](C)O)[C@@H](C)O)C(=O)N[C@@H](CCCNC(=N)N)C(=O)N[C@@H](C)C(=O)N[C@@H](CCCNC(=N)N)C(=O)N[C@@H](CC(=O)O)C(=O)N[C@@H](Cc1ccccc1)C(=O)N[C@H](C(=O)N[C@@H](C)C(=O)N[C@@H](Cc1c[nH]c2ccccc12)C(=O)N[C@@H](CC(C)C)C(=O)N[C@@H](CCC(=O)O)C(=O)N[C@@H](CCCNC(=N)N)C(=O)NCC(=O)NCC(N)=O)C(C)C)C(=O)O [g721] (H-HGQGTFTSDYSEYLDSK([γGlu-Palmitoyl])RARDFVAWLERGG-NH2; N-terminus assumed) | 3.23 | 979 | 0.411
2 | CCCCCCCCCCCCCCCC(=O)N[C@@H](CCC(=O)NCCCC[C@H](NC(=O)[C@H](CO)NC(=O)[C@H](CC(=O)O)NC(=O)[C@H](CC(C)C)NC(=O)[C@H](Cc1ccc(O)cc1)NC(=O)[C@H](CCC(=O)O)NC(=O)[C@H](CO)NC(=O)[C@H](Cc1ccc(O)cc1)NC(=O)[C@H](CC(=O)O)NC(=O)[C@H](CO)NC(=O)[C@@H](NC(=O)[C@H](Cc1ccccc1)NC(=O)[C@@H](NC(=O)CNC(=O)[C@H](CCC(N)=O)NC(=O)CNC(=O)[C@@H](N)Cc1c[nH]cn1)[C@@H](C)O)[C@@H](C)O)C(=O)N[C@@H](CCCNC(=N)N)C(=O)N[C@@H](C)C(=O)N[C@@H](C)C(=O)N[C@@H](CC(=O)O)C(=O)N[C@@H](Cc1ccccc1)C(=O)N[C@H](C(=O)N[C@@H](C)C(=O)N[C@@H](Cc1c[nH]c2ccccc12)C(=O)N[C@@H](CC(C)C)C(=O)N[C@@H](CCC(=O)O)C(=O)N[C@@H](CCCNC(=N)N)C(=O)NCC(=O)NCC(N)=O)C(C)C)C(=O)O [g722] | 11.1 | 1670 | 0.426
3 | CCCCCCCCCCCCCCCC(=O)N[C@@H](CCC(=O)NCCCC[C@H](NC(=O)[C@H](CO)NC(=O)[C@H](CC(=O)O)NC(=O)[C@H](CC(C)C)NC(=O)[C@H](Cc1ccc(O)cc1)NC(=O)[C@H](CCC(=O)O)NC(=O)[C@H](CO)NC(=O)[C@H](Cc1ccc(O)cc1)NC(=O)[C@H](CC(=O)O)NC(=O)[C@H](CO)NC(=O)[C@@H](NC(=O)[C@H](Cc1ccccc1)NC(=O)[C@@H](NC(=O)CNC(=O)[C@H](CCC(N)=O)NC(=O)CNC(=O)[C@@H](N)Cc1c[nH]cn1)[C@@H](C)O)[C@@H](C)O)C(=O)N[C@@H](CCCNC(=N)N)C(=O)N[C@@H](C)C(=O)N[C@@H](CCCNC(=N)N)C(=O)N[C@@H](CC(=O)O)C(=O)N[C@@H](Cc1ccccc1)C(=O)N[C@H](C(=O)N[C@@H](CCC(=O)O)C(=O)N[C@@H](Cc1c[nH]c2ccccc12)C(=O)N[C@@H](CC(C)C)C(=O)N[C@@H](CCC(=O)O)C(=O)N[C@@H](CCCNC(=N)N)C(=O)NCC(=O)NCC(N)=O)C(C)C)C(=O)O [g723] | 8.95 | 761 | 0.33
4 | CCCCCCCCCCCCCCCC(=O)NCCCCCC(=O)NCCCC[C@H](NC(=O)[C@H](CO)NC(=O)[C@H](CC(=O)O)NC(=O)[C@H](CC(C)C)NC(=O)[C@H](Cc1ccc(O)cc1)NC(=O)[C@H](CCC(=O)O)NC(=O)[C@H](CO)NC(=O)[C@H](Cc1ccc(O)cc1)NC(=O)[C@H](CC(=O)O)NC(=O)[C@H](CO)NC(=O)[C@@H](NC(=O)[C@H](Cc1ccccc1)NC(=O)[C@@H](NC(=O)CNC(=O)[C@H](CCC(=O)O)NC(=O)CNC(=O)[C@@H](N)Cc1c[nH]cn1)[C@@H](C)O)[C@@H](C)O)C(=O)N[C@@H](CCCNC(=N)N)C(=O)N[C@@H](C)C(=O)N[C@@H](CCCNC(=N)N)C(=O)N[C@@H](CC(=O)O)C(=O)N[C@@H](Cc1ccccc1)C(=O)N[C@H](C(=O)N[C@@H](C)C(=O)N[C@@H](Cc1c[nH]c2ccccc12)C(=O)N[C@@H](CC(C)C)C(=O)N[C@@H](CCC(=O)O)C(=O)N[C@@H](CCCNC(=N)N)C(=O)NCC(=O)NCC(N)=O)C(C)C [g724] (H-HGEGTFTSDYSEYLDSK([Ahx-Palmitoyl])RARDFVAWLERGG-NH2; N-terminus assumed) | 30.9 | 933 | 0.019
5 | CCCCCCCCCCCCCCCC(=O)NCCCCCC(=O)NCCCC[C@H](NC(=O)[C@H](CO)NC(=O)[C@H](CC(=O)O)NC(=O)[C@H](CC(C)C)NC(=O)[C@H](Cc1ccc(O)cc1)NC(=O)[C@H](CCC(=O)O)NC(=O)[C@H](CO)NC(=O)[C@H](Cc1ccc(O)cc1)NC(=O)[C@H](CC(=O)O)NC(=O)[C@H](CO)NC(=O)[C@@H](NC(=O)[C@H](Cc1ccccc1)NC(=O)[C@@H](NC(=O)CNC(=O)[C@H](CCC(=O)O)NC(=O)CNC(=O)[C@@H](N)Cc1c[nH]cn1)[C@@H](C)O)[C@@H](C)O)C(=O)N[C@@H](CCCNC(=N)N)C(=O)N[C@@H](C)C(=O)N[C@@H](C)C(=O)N[C@@H](CC(=O)O)C(=O)N[C@@H](Cc1ccccc1)C(=O)N[C@H](C(=O)N[C@@H](C)C(=O)N[C@@H](Cc1c[nH]c2ccccc12)C(=O)N[C@@H](CC(C)C)C(=O)N[C@@H](CCC(=O)O)C(=O)N[C@@H](CCCNC(=N)N)C(=O)NCC(=O)NCC(N)=O)C(C)C [g725] (H-HGEGTFTSDYSEYLDSK([Ahx-Palmitoyl])RAADFVAWLERGG-NH2; N-terminus assumed) | 59.9 | 1480 | 0.0252
6 | CCCCCCCCCCCCCCCC(=O)NCCCCCC(=O)NCCCC[C@H](NC(=O)[C@H](CO)NC(=O)[C@H](CC(=O)O)NC(=O)[C@H](CC(C)C)NC(=O)[C@H](Cc1ccc(O)cc1)NC(=O)[C@H](CCC(=O)O)NC(=O)[C@H](CO)NC(=O)[C@H](Cc1ccc(O)cc1)NC(=O)[C@H](CC(=O)O)NC(=O)[C@H](CO)NC(=O)[C@@H](NC(=O)[C@H](Cc1ccccc1)NC(=O)[C@@H](NC(=O)CNC(=O)[C@H](CCC(=O)O)NC(=O)CNC(=O)[C@@H](N)Cc1c[nH]cn1)[C@@H](C)O)[C@@H](C)O)C(=O)N[C@@H](CCCNC(=N)N)C(=O)N[C@@H](C)C(=O)N[C@@H](CCCNC(=N)N)C(=O)N[C@@H](CC(=O)O)C(=O)N[C@@H](Cc1ccccc1)C(=O)N[C@H](C(=O)N[C@@H](CCC(=O)O)C(=O)N[C@@H](Cc1c[nH]c2ccccc12)C(=O)N[C@@H](CC(C)C)C(=O)N[C@@H](CCC(=O)O)C(=O)N[C@@H](CCCNC(=N)N)C(=O)NCC(=O)NCC(N)=O)C(C)C [g726] (H-HGEGTFTSDYSEYLDSK([Ahx-Palmitoyl])RARDFVEWLERGG-NH2; N-terminus assumed) | 13.1 | 215 | 0.00791

— US20200354426A1 (MEDIMMUNE LIMITED, priority 2016, published 2020)
